Experimental data: publication PMC12021657, “Rapid traversal of vast chemical space using machine learning-guided docking screens” (Nature Computational Science, 2025)

Target: T1, Human A2AR (Homo sapiens, UniProt P29274)
T1 construct: expressed in transfected cells; host or cells: HeLa-A2A cell line (membranes prepared in house, lot A003/14-04-2019)
Experiment: Human A2AR competition radioligand binding ([3H]-ZM241385, HeLa-A2A membranes)
Conditions: 20 µM compound, mean ± SEM of two technical replicates
Protocol: Screening compounds (Supplementary Tables 10 and 12) were purchased from Enamine (compound purity >90%, which was confirmed by liquid chromatography−mass spectrometry and ^1H NMR spectroscopy for identified ligands; Supplementary Figs. 19–30). Human D2R competition binding experiments were carried out in polypropylene 96-well plates. Each well contained 20 µg of membranes from a CHO-D2R #S20 cell line (protein concentration of 4,322 µg ml^−1), 1.5 nM [^3H]-spiperone (54.3 Ci mmol^−1, 1 mCi ml^−1, PerkinElmer NET1187250UC) and the compound studied. Non-specific binding was determined in the presence of 10 µM sulpiride (Sigma Aldrich S8010). The reaction mixture (250 µl per well) was incubated at 25 °C for 120 min, after which 200 µl was transferred to a GF/C 96-well plate (Millipore) pretreated with 0.5% PEI and treated with binding buffer (50 mM Tris-HCl, 1 mM EDTA, 5 mM MgCl2, 5 mM KCl, 120 mM NaCl, pH 7.4). The reaction mixture was filtered and washed 4 times with 250 µl wash buffer (50 mM Tris-HCl, 0.9% NaCl, pH 7.4) before the addition of 30 μl Universol. The final measurement was performed in a microplate beta scintillation counter (Microbeta Trilux, PerkinElmer). Human A2AR competition binding experiments were carried out in a multiscreen GF/C 96-well plate (Millipore) pretreated with binding buffer (Tris-HCl 50 mM, EDTA 1 mM, MgCl2 10 mM, 2 U ml^−1 adenosine deaminase, pH 7.4). Each well was incubated with 5 μg of membranes from the HeLa-A2A cell line and prepared in our laboratory (lot A003/14-04-2019, protein concentration 2,058 μg ml^−1), 1 nM [^3H]-ZM241385 (50 Ci mmol^−1, 1 mCi ml^−1, ARC-ITISA 0884), and the compounds studied and standards. Non-specific binding was determined in the presence of NECA 50 μM (Sigma E2387). The reaction mixture (total volume of 200 μl per well) was incubated at 25 °C for 30 min, then filtered and washed 4 times with 250 μl wash buffer (Tris-HCl 50 mM, EDTA 1 mM, MgCl2 10 mM, pH 7.4), and measured in a microplate beta scintillation counter (Microbeta Trilux, PerkinElmer). Unless stated otherwise, three independent experiments were carried out to calculate Ki values.

T1 sequence (P29274 whole entry): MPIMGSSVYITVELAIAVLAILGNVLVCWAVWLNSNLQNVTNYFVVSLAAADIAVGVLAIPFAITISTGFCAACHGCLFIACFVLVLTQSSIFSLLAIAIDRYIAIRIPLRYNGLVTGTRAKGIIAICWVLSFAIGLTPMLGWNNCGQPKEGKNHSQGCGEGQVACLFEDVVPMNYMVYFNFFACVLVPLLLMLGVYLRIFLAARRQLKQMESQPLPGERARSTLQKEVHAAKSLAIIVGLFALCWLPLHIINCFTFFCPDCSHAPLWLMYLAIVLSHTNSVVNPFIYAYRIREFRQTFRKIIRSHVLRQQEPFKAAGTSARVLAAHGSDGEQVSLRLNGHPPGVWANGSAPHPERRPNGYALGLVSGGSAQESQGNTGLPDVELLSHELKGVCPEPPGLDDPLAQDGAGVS

| Compound | A2AR radioligand displacement at 20 µM (%) |
| --- | --- |
| NC(Cc1ccccc1Cl)C(=O)N1CC(C(=O)Nc2nccs2)C1 (centres unmarked) [Z6437654059, c1ccc(c(c1)CC(C(=O)N2CC(C2)C(=O)Nc3nccs3)N)Cl] | 3±2% |
| O=C(CN1CCC1Cc1ccccc1)Nc1ncc[nH]1 (centres unmarked) [Z6743522026, c1ccc(cc1)CC2CCN2CC(=O)Nc3[nH]ccn3] | 5±3% |
| CC(Cc1c[nH]c2ncccc12)NCc1nn(C)c2ccccc12 (centres unmarked) [Z7272600070, CC(Cc1c[nH]c2c1cccn2)NCc3c4ccccc4n(n3)C] | 20±1% |
| COc1cc(CNC(C)Cc2c[nH]c3ncccc23)ncc1C (centres unmarked) [Z7326877935, Cc1cnc(cc1OC)CNC(C)Cc2c[nH]c3c2cccn3] | 13±2% |
| Cc1ccc(NCCNC(=O)C2Cc3c(C)cccc3CN2)nc1 (centres unmarked) [Z8854579335, Cc1ccc(nc1)NCCNC(=O)C2Cc3c(cccc3CN2)C] | 6±2% |
| COc1ccc(Cl)c(CCN=C(N)Nc2ncccn2)c1 [Z8854579336, COc1ccc(c(c1)CCN=C(N)Nc2ncccn2)Cl] | 39±1% |
| NC(=NCCc1ccccc1Cl)Nc1ncccn1 [Z8854579337, c1ccc(c(c1)CCN=C(N)Nc2ncccn2)Cl] | 29±4% |
| N[C@@H](CC(=O)Nc1nc2c(Br)cc(F)cc2[nH]1)Cc1ccccc1 [Z8854579338, c1ccc(cc1)C[C@H](CC(=O)Nc2[nH]c3cc(cc(c3n2)Br)F)N] | 49±2% |
| NC(CC(=O)Nc1cc2ncccn2n1)C(=O)OCc1ccccc1 (centres unmarked) [Z8854579341, c1ccc(cc1)COC(=O)C(CC(=O)Nc2cc3ncccn3n2)N] | 2±2% |
| N[C@H]1c2ccccc2C[C@H]1C(=O)Nc1ccn(-c2ccccn2)n1 [Z8854579342, c1ccc2c(c1)C[C@H]([C@H]2N)C(=O)Nc3ccn(n3)c4ccccn4] | 30±2% |
| NC(=NCCOc1ccc(F)cc1)Nc1ncccn1 [Z8854579344, c1cnc(nc1)NC(=NCCOc2ccc(cc2)F)N] | 17±1% |
| NC(=NCc1cc2ccccc2o1)Nc1ncccn1 [Z8854579345, c1ccc2c(c1)cc(o2)CN=C(N)Nc3ncccn3] | 32±2% |
| NC(=NCCOc1cccc(C(F)(F)F)c1)Nc1ncccn1 [Z8854579346, c1cc(cc(c1)OCCN=C(N)Nc2ncccn2)C(F)(F)F] | 23±1% |
| Cc1ccc(C[C@H](N)CC(=O)Nc2nc3c(C)cccc3[nH]2)cc1 [Z8854579350, Cc1ccc(cc1)C[C@@H](CC(=O)Nc2[nH]c3cccc(c3n2)C)N] | 30±3% |
| CSc1ccc(CCN=C(N)Nc2ncccn2)cc1 [Z8854579356, CSc1ccc(cc1)CCN=C(N)Nc2ncccn2] | 15±1% |

Results, then the compound that gave them:

| A2AR radioligand displacement at 20 µM (%) | Compound |
| --- | --- |
| 32±4% | NC(=NCc1ccsc1-n1cccc1)Nc1ncccn1 [Z8854579347, c1ccn(c1)c2c(ccs2)CN=C(N)Nc3ncccn3] |
| 31±1% | Cc1cccc2[nH]c(NC(=O)C(N)Cc3csc4ccccc34)nc12 (centres unmarked) [Z8854579351, Cc1cccc2c1nc([nH]2)NC(=O)C(Cc3csc4c3cccc4)N] |
| 57±4% | Cc1cccc2[nH]c(NC(=O)C(N)Cc3cccc(Cl)c3)nc12 (centres unmarked) [Z8854579352, Cc1cccc2c1nc([nH]2)NC(=O)C(Cc3cccc(c3)Cl)N] |
| 22±5% | NC(=NCCc1ccccc1OC(F)(F)F)Nc1ncccn1 [Z8854579353, c1ccc(c(c1)CCN=C(N)Nc2ncccn2)OC(F)(F)F] |
| 1±1% | Cc1cccc2c1CC(C(=O)NCCNc1ncccn1)NC2 (centres unmarked) [Z8854579354, Cc1cccc2c1CC(NC2)C(=O)NCCNc3ncccn3] |
| 28±1% | NC(=NCCc1cccc(Br)c1)Nc1ncccn1 [Z8854579355, c1cc(cc(c1)Br)CCN=C(N)Nc2ncccn2] |
| 16±4% | NC(=NCCc1c(F)cccc1Cl)Nc1ncccn1 [Z8854579358, c1cc(c(c(c1)Cl)CCN=C(N)Nc2ncccn2)F] |
| 26±3% | NC(=NCCOc1ccc(F)c(Cl)c1)Nc1ncccn1 [Z8854579360, c1cnc(nc1)NC(=NCCOc2ccc(c(c2)Cl)F)N] |
